As a reminder, the inhibition is the drop in the measured response relative to a control, in per cent. Lower therefore signals a response near the control. The term IC50 denotes the concentration that inhibits the measured activity by half.

This is an account of results in ChEMBL document CHEMBL1141690, “New PPARgamma ligands based on barbituric acid: virtual screening, synthesis and receptor binding studies” (Bioorg Med Chem Lett, 2008).

The target of the first assay is T1, Peroxisome proliferator-activated receptor gamma (Mus musculus) (UniProt P37238).
T1 sequence (whole entry): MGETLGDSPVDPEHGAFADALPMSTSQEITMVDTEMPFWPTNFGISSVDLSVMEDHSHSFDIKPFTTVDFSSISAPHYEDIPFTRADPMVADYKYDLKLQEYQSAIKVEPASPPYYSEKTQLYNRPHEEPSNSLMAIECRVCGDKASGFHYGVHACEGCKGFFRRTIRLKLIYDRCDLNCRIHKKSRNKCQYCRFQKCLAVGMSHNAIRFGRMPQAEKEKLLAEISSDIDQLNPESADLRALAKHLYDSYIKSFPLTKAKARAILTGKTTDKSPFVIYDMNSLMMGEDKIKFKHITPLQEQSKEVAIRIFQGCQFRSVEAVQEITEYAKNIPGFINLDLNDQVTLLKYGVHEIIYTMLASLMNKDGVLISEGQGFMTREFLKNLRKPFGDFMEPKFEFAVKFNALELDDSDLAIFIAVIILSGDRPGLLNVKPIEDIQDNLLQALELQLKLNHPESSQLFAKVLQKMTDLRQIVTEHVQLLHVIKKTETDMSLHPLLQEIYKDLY
In words: Displacement of [3H]rosiglitazone from mouse PPARgamma receptor at 10 uM by scintillation proximation assay. Background: In a radioligand displacement assay an active substance lowers the binding of a labelled ligand.
Take `O=C1NC(=O)C(=Cc2ccc(OCCOc3ccccn3)cc2)C(=O)N1`: the inhibition is below 20%.

As to `N#Cc1ccc(OCCCOc2ccc(C=C3C(=O)NC(=O)NC3=O)cc2)cc1`, the inhibition was below 20%. As to `O=C1NC(=O)C(=Cc2ccc(OCCOc3ccc(Br)cc3)cc2)C(=O)N1`, the inhibition is below 20%. With `O=C1NC(=O)C(=Cc2ccc(OCCn3c4ccccc4c4ccccc43)cc2)C(=O)N1`, the inhibition was below 20%.

Regarding `O=C1NC(=O)C(=Cc2ccc(OCCn3ccc4cccnc43)cc2)C(=O)N1`, the inhibition is below 20%.

`CC(C)c1ccc(OCCCOc2ccc(C=C3C(=O)NC(=O)NC3=O)cc2)cc1` displayed an inhibition below 20%. `O=C1NC(=O)C(=Cc2ccc(OCCOc3ccc4ccccc4c3)cc2)C(=O)N1` registered an inhibition below 20%. Compound `Cc1ccc(OCCOc2ccc(C=C3C(=O)NC(=O)NC3=O)cc2)cc1` returned an inhibition below 20%.

The target in a further assay is T2, Peroxisome proliferator-activated receptor gamma (Mus musculus, UniProt P37238).
T2 sequence (P37238 whole entry): T1 sequence (whole entry)
The assay is described as follows: Displacement of [3H]rosiglitazone from mouse PPARgamma receptor by scintillation proximation assay.
`O=C1NC(=O)C(=Cc2ccc(Oc3ccccc3)cc2)C(=O)N1` showed an IC50 of 0.1 µM. As for `COc1ccc(OCCOc2ccc(C=C3C(=O)NC(=O)NC3=O)cc2)cc1`, the IC50 stood at 0.2 µM. On the same count and under the same terms, to `N#Cc1ccc(OCCOc2ccc(C=C3C(=O)NC(=O)NC3=O)cc2)cc1` belongs 0.2 µM; to `Cc1ccc(OCCOc2cccc(C=C3C(=O)NC(=O)NC3=O)c2)cc1`, 0.8 µM; to `O=C1NC(=O)C(=Cc2ccc(OCCN3c4ccccc4Oc4ccccc43)cc2)C(=O)N1`, 0.5 µM.

Consider `O=C1NC(=O)C(=Cc2ccc(OCCOc3ccc([N+](=O)[O-])cc3)cc2)C(=O)N1`, for which the IC50 turned out to be 2.5 µM.
